Measured values taken from US10376520B2, “Methods for the treatment of cardiovascular disorders” (Galapagos NV, priority 2015, dated 2019).

Test system: RA patients
Assay: Atherogenic index, Study 2 (RA patients, monotherapy)
Format: in vivo, human
Method: As used herein, the term ‘atherogenic index’ refers to
Double-blind, placebo-controlled, monotherapy study in subjects with moderately to severely active RA who have an inadequate response to methotrexate (MTX) (oral or parenteral).
Twelve weeks of treatment with Compound 1 (dosed as a [Compound 1:HCl:3H2O]) at 50 mg, 100 mg, or 200 mg q.d.; or placebo. At Week 12, all subjects on placebo and the subjects on the 50 mg dose who have not achieved 20% improvement in swollen joint count (SJC66) and tender joint count (TJC68) will be assigned to 100 mg q.d. in a blinded fashion and will continue treatment until Week 24. Subjects in the other groups will maintain their randomized treatment until Week 24.
The atherogenic index has been identified to be a good predictor of cardiovascular disorders risks and is calculated as follows: […]

[1] = 50 mg q.d. non responders switching to 100 mg q.d., week 1
[2] = 50 mg q.d. non responders switching to 100 mg q.d., week 2
[3] = 50 mg q.d. non responders switching to 100 mg q.d., week 4
[4] = 50 mg q.d. non responders switching to 100 mg q.d., week 8
[5] = 50 mg q.d. non responders switching to 100 mg q.d., week 12
[6] = 50 mg q.d. non responders switching to 100 mg q.d., week 16
[7] = 50 mg q.d. non responders switching to 100 mg q.d., week 20
[8] = 50 mg q.d. non responders switching to 100 mg q.d., week 24

O=C(Nc1nc2cccc(-c3ccc(CN4CCS(=O)(=O)CC4)cc3)n2n1)C1CC1 [Compound 1, cyclopropanecarboxylic acid {5-[4-(1,1-dioxo-thiomorpholin-4-ylmethyl)-phenyl]-[1,2,4]triazolo[1,5-a]pyridin-2yl}-amide]
Atherogenic index Mean percentage CFB - 24 weeks results [1]: −0.49% | Atherogenic index Median CFB - 24 weeks results [1]: 0.00 mmol/L | Atherogenic index Median percentage CFB - 24 weeks results [1]: 0.00% | Atherogenic index Mean percentage CFB - 24 weeks results [2]: 0.40% | Atherogenic index Median CFB - 24 weeks results [2]: -0.10 mmol/L | Atherogenic index Median percentage CFB - 24 weeks results [2]: −2.38% | Atherogenic index Median CFB - 24 weeks results [3]: -0.20 mmol/L | Atherogenic index Median percentage CFB - 24 weeks results [3]: −6.67% | Atherogenic index Mean percentage CFB - 24 weeks results [4]: 3.03% | Atherogenic index Median CFB - 24 weeks results [4]: -0.20 mmol/L | Atherogenic index Median percentage CFB - 24 weeks results [4]: −6.82% | Atherogenic index Mean percentage CFB - 24 weeks results [5]: −2.71% | Atherogenic index Median CFB - 24 weeks results [5]: -0.20 mmol/L | Atherogenic index Median percentage CFB - 24 weeks results [5]: −5.88% | Atherogenic index Mean percentage CFB - 24 weeks results [6]: −3.31% | Atherogenic index Median CFB - 24 weeks results [6]: -0.20 mmol/L | Atherogenic index Median percentage CFB - 24 weeks results [6]: −5.00% | Atherogenic index Mean percentage CFB - 24 weeks results [7]: −3.58% | Atherogenic index Median CFB - 24 weeks results [7]: -0.20 mmol/L | Atherogenic index Median percentage CFB - 24 weeks results [7]: −5.88% | Atherogenic index Mean percentage CFB - 24 weeks results [8]: −7.04% | Atherogenic index Median CFB - 24 weeks results [8]: -0.30 mmol/L | Atherogenic index Median percentage CFB - 24 weeks results [8]: −9.97% | Atherogenic index Mean percentage CFB - 24 weeks results (50 mg q.d. responders, week 1): −0.34% | Atherogenic index Median CFB - 24 weeks results (50 mg q.d. responders, week 1): -0.10 mmol/L | Atherogenic index Mean percentage CFB - 24 weeks results (50 mg q.d. responders, week 2): −3.56% | Atherogenic index Median CFB - 24 weeks results (50 mg q.d. responders, week 2): -0.05 mmol/L | Atherogenic index Mean percentage CFB - 24 weeks results (50 mg q.d. responders, week 4): −2.87% | Atherogenic index Median CFB - 24 weeks results (50 mg q.d. responders, week 4): -0.25 mmol/L | Atherogenic index Median percentage CFB - 24 weeks results (50 mg q.d. responders, week 4): −7.69% | Atherogenic index Mean percentage CFB - 24 weeks results (50 mg q.d. responders, week 8): −2.06% | Atherogenic index Median CFB - 24 weeks results (50 mg q.d. responders, week 8): -0.10 mmol/L | Atherogenic index Mean percentage CFB - 24 weeks results (50 mg q.d. responders, week 12): 0.89% | Atherogenic index Median CFB - 24 weeks results (50 mg q.d. responders, week 12): -0.10 mmol/L | Atherogenic index Median percentage CFB - 24 weeks results (50 mg q.d. responders, week 12): −2.56% | Atherogenic index Mean percentage CFB - 24 weeks results (50 mg q.d. responders, week 16): 1.59% | Atherogenic index Median CFB - 24 weeks results (50 mg q.d. responders, week 16): 0.00 mmol/L | Atherogenic index Median percentage CFB - 24 weeks results (50 mg q.d. responders, week 16): 0.00% | Atherogenic index Median CFB - 24 weeks results (50 mg q.d. responders, week 20): -0.20 mmol/L | Atherogenic index Median percentage CFB - 24 weeks results (50 mg q.d. responders, week 20): −4.04% | Atherogenic index Median CFB - 24 weeks results (50 mg q.d. responders, week 24): -0.20 mmol/L | Atherogenic index Median percentage CFB - 24 weeks results (50 mg q.d. responders, week 24): −5.77% | Atherogenic index Mean CFB - 12 weeks results (50 mg q.d., week 1): 0.00 mmol/L | Atherogenic index Mean percentage CFB - 12 weeks results (50 mg q.d., week 1): −0.38% | Atherogenic index Median CFB - 12 weeks results (50 mg q.d., week 1): 0.00 mmol/L | Atherogenic index Median percentage CFB - 12 weeks results (50 mg q.d., week 1): 0.00% | Atherogenic index Mean CFB - 12 weeks results (50 mg q.d., week 2): -0.10 mmol/L | Atherogenic index Median CFB - 12 weeks results (50 mg q.d., week 2): -0.10 mmol/L | Atherogenic index Median percentage CFB - 12 weeks results (50 mg q.d., week 2): −2.38% | Atherogenic index Mean CFB - 12 weeks results (50 mg q.d., week 4): -0.13 mmol/L | Atherogenic index Mean percentage CFB - 12 weeks results (50 mg q.d., week 4): −2.63% | Atherogenic index Median CFB - 12 weeks results (50 mg q.d., week 4): -0.20 mmol/L | Atherogenic index Median percentage CFB - 12 weeks results (50 mg q.d., week 4): −7.69% | Atherogenic index Mean CFB - 12 weeks results (50 mg q.d., week 8): -0.03 mmol/L | Atherogenic index Mean percentage CFB - 12 weeks results (50 mg q.d., week 8): −0.95% | Atherogenic index Median CFB - 12 weeks results (50 mg q.d., week 8): -0.10 mmol/L | Atherogenic index Median percentage CFB - 12 weeks results (50 mg q.d., week 8): −2.70% | Atherogenic index Mean CFB - 12 weeks results (50 mg q.d., week 12): 0.01 mmol/L | Atherogenic index Mean percentage CFB - 12 weeks results (50 mg q.d., week 12): 0.09% | Atherogenic index Median CFB - 12 weeks results (50 mg q.d., week 12): -0.10 mmol/L | Atherogenic index Median percentage CFB - 12 weeks results (50 mg q.d., week 12): −3.85% | Atherogenic index Mean CFB - 12 weeks results (100 mg q.d., week 1): -0.05 mmol/L | Atherogenic index Mean percentage CFB - 12 weeks results (100 mg q.d., week 1): −0.84% | Atherogenic index Mean percentage CFB - 24 weeks results (100 mg q.d., week 1): −0.84% | Atherogenic index Median CFB - 12 weeks results (100 mg q.d., week 1): 0.00 mmol/L | Atherogenic index Median CFB - 24 weeks results (100 mg q.d., week 1): 0.00 mmol/L | Atherogenic index Median percentage CFB - 12 weeks results (100 mg q.d., week 1): 0.00% | Atherogenic index Median percentage CFB - 24 weeks results (100 mg q.d., week 1): 0.00% | Atherogenic index Mean CFB - 12 weeks results (100 mg q.d., week 2): -0.11 mmol/L | Atherogenic index Mean percentage CFB - 12 weeks results (100 mg q.d., week 2): −2.82% | Atherogenic index Mean percentage CFB - 24 weeks results (100 mg q.d., week 2): −2.82% | Atherogenic index Median CFB - 12 weeks results (100 mg q.d., week 2): -0.20 mmol/L | Atherogenic index Median CFB - 24 weeks results (100 mg q.d., week 2): -0.20 mmol/L | Atherogenic index Median percentage CFB - 12 weeks results (100 mg q.d., week 2): −6.25% | Atherogenic index Median percentage CFB - 24 weeks results (100 mg q.d., week 2): −6.25% | Atherogenic index Mean CFB - 12 weeks results (100 mg q.d., week 4): -0.19 mmol/L | Atherogenic index Mean percentage CFB - 12 weeks results (100 mg q.d., week 4): −4.17% | Atherogenic index Mean percentage CFB - 24 weeks results (100 mg q.d., week 4): −4.17%
